Data taken from paper PMC8617681 (Pharmaceuticals, 2021).

Target: T1, human OATP1A2 (Homo sapiens, UniProt P46721)
T1 construct: Werner Siegmund and Dr. Markus Keiser (University of Greifswald); host or cells: HEK293
T1 sequence (P46721 1-670): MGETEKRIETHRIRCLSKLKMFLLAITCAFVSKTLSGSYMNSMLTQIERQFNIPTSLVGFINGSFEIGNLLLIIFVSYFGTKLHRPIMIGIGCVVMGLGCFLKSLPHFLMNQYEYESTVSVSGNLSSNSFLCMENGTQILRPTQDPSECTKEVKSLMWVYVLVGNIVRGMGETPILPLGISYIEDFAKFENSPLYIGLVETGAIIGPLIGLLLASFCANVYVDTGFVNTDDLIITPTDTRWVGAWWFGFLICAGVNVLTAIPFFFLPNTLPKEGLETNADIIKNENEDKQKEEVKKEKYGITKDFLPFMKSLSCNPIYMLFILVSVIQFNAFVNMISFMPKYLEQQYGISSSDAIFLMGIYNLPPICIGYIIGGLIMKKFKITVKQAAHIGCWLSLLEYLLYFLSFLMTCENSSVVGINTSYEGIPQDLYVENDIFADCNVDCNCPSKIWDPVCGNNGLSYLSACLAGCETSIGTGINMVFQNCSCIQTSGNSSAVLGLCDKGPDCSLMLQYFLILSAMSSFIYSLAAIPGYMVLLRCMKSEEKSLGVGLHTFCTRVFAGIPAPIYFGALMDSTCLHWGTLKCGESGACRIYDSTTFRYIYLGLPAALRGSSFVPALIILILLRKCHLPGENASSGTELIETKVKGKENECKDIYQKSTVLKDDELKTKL
Experiment: Cellular uptake in OATP1A2-overexpressing HEK293 cells
Type: in vitro ADME
Conditions: 5 µM, 2.5 min incubation, HEK293 OATP1A2
Experimental: HEK293 cells, vector-transfected or human (h)SLCO1A2, hSLCO1B1 or hSLCO1B3 cDNA-transfected were kind gifts from Prof. Werner Siegmund and Dr. Markus Keiser (University of Greifswald, Greifswald, Germany). All the HEK293 cell lines were maintained in DMEM supplemented with 10% (v/v) FBS, 1% penicillin–streptomycin mix at 37 °C in 5% (v/v) CO2 and 500 μg/mL G418. Cells were first seeded in 12-well plates [coated with 50 mg/L poly (l-lysine) and 50 mg/L poly (l-ornithine)] at a density of 1.0 × 10^5 cells/well. For the uptake study, in order to induce the expression of OATP transporters, the cell culture medium was replaced with culture medium supplemented with 5 mM sodium butyrate 24 h before performing the uptake assay.
The uptake transport study was performed as described previously. […] The Krebs–Henseleit solution was prepared from Krebs–Henseleit-buffer modified powder and supplemented with 25 mM NaHCO3 and 2.5 mM CaCl2 adjusted to pH 6.4 with 1 M HCL. At 2.5 min, the incubation buffer was removed, and uptake was terminated by adding 1 mL of ice-cold Krebs–Henseleit buffer, followed by two times washing with 1 mL of ice-cold Krebs–Henseleit buffer. […] The cellular protein amount was determined by the Bradford method using 10 μL of the cell lysates with bovine serum albumin as a standard.

COc1ccc(CN2C3CC2CN(c2ccc(-c4cc(OCC(C)(C)O)cn5ncc(C#N)c45)cn2)C3)cn1 [selpercatinib]
uptake compared to vector control cells: did not observe any significant increase in the uptake
